# Patent US12329753B2, “Phosphodiesterase inhibitor treatment” (Cyrano Therapeutics, Inc., priority 2008, dated 2025)
# System: asthmatic patients
# Assay: sGaw after inhaled dry powder in asthmatic patients, single blind study (Examples 5, 6)
# Assay type: in vivo, human
# Conditions: dry powder 1 mg inhaled
# Procedure: (§1) To test this theory, asthmatic patients are enrolled in a dose escalating single blind study. On arrival to the clinic, subjects are allowed to rest for 20 minutes before baseline measurements of FEV1 (six recordings) and sGaw (five recordings) are made. Subjects receive a dry powder dispenser loaded with a dose of 2 mg theophylline or a dry powder carrier. […] After each inhalation, measurements of sGaw are made at 1, 3, 5, 10, 15, 20, 25, and 30 minutes.
# On completion of the last recording, subjects inhale a 200 μg dose of salbutamol from a metered inhaler and a further measurement of sGaw is made after 15 minutes. Subjects are also monitored for coughing and are questioned about the taste of the drug.
# as §1, with “Asthmatic patients” for “To test this theory, asthmatic patients”, “of 1” for “of 2”, “mg IBMX formulated as a dry powder” for “mg theophylline”
# On completion of the last recording, subjects inhale a 200 μg dose of salbutamol from a metered inhaler and a further measurement of sGaw mad after 15 minutes. Subjects are also be monitored for coughing and are questioned about the taste of the drug.
structure (smiles),measurement,setting,value
"CC(C)Cn1c(=O)n(C)c(=O)c2[nH]cnc21 [IBMX, 3-isobutyl-1-methylxanthine]",increase in sGaw versus 200 μg salbutamol,,comparable with that produced by salbutamol
same,time until sGaw baseline is reached,,one and a half hours
same,sGaw above baseline measurement,after 30 minutes,20%
